Laboratory results: ChEMBL document CHEMBL1153178, “Design and synthesis of a hybrid potentiator-corrector agonist of the cystic fibrosis mutant protein DeltaF508-CFTR” (Bioorg Med Chem Lett, 2010)
The source made the active and inactive calls. The rule behind the calls is not given here.

Tested on: Cystic fibrosis transmembrane conductance regulator (Homo sapiens), P13569 [F508del]
Assay: Agonist activity at human CFTR deltaF508 mutant expressed in rat FRT cells assessed as forskolin-stimulated […] by patch-clamp method
Format: functional, cell-based

Chain of Cystic fibrosis transmembrane conductance regulator (Homo sapiens), P13569 [F508del] (P13569 as listed by the source): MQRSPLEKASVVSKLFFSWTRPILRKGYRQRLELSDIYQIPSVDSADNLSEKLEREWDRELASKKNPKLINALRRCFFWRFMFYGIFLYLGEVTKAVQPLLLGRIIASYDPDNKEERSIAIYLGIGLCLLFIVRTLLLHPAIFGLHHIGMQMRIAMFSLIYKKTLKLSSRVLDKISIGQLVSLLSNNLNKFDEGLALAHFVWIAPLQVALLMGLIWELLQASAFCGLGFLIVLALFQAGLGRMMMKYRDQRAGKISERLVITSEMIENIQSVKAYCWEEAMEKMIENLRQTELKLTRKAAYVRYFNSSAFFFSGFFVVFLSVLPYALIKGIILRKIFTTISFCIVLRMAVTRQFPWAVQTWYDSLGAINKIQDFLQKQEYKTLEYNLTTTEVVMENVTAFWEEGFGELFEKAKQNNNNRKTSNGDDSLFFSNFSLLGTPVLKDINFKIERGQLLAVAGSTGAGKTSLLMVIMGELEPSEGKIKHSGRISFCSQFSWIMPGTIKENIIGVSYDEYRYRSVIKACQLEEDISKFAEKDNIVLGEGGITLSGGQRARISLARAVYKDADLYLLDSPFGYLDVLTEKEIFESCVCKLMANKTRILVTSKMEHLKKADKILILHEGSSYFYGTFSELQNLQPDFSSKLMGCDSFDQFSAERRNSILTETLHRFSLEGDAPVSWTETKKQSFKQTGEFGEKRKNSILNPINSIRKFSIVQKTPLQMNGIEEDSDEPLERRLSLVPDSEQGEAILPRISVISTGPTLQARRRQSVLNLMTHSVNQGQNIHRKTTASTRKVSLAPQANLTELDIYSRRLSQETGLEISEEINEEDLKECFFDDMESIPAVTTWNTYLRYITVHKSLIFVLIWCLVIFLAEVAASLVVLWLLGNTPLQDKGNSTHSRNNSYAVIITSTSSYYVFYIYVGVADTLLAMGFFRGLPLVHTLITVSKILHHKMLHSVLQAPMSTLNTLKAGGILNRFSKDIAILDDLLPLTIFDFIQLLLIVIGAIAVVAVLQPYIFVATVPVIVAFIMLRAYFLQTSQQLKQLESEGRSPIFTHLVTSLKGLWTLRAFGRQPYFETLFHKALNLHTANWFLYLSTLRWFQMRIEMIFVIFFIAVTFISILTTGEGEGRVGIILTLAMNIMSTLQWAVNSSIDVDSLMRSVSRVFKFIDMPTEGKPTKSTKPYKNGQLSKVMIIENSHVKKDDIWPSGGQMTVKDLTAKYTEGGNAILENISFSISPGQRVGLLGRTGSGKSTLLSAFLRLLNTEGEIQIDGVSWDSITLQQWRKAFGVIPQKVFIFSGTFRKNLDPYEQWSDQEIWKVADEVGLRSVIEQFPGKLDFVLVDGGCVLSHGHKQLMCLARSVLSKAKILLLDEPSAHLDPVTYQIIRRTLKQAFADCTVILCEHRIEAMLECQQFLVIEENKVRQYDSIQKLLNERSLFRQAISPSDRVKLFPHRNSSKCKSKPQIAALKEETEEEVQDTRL

| Activity | SMILES |
| --- | --- |
| inactive | Cc1nc(NC(=O)c2ccccc2)sc1-c1csc(Nc2cc(Cl)ccc2OCCOCCOCC(=O)OCc2ccc(NC(=O)[C@H](c3ccccc3)N(C)C(=O)Cc3c[nH]c4ccccc34)cc2)n1 |
| Active | CN(C(=O)Cc1c[nH]c2ccccc12)[C@H](C(=O)Nc1ccc(CO)cc1)c1ccccc1 |
| Active | Cc1nc(NC(=O)c2ccccc2)sc1-c1csc(Nc2cc(Cl)ccc2OCCOCCOCC(=O)O)n1 |
